Activity calls are given as the source filed them. The rule behind the calls is not given here.

The nature of series [1]: Cytotoxicity against human CMEC/D3 cells assessed as increase in cell impedance at 1 uM incubated for 4 hrs by RTCA assay. The format is toxicity, cell-based. To be noted: hcmec/d3, 4 h.
Series [2] can be described thus: Cytotoxicity against human CMEC/D3 cells assessed as decrease in cell impedance at 10 uM incubated for 4 hrs by RTCA assay. The format is toxicity, cell-based. To be noted: hcmec/d3, 4 h.
The test system of series [3] is hCMEC/D3. Briefly: Cytoprotective activity against tBHP-induced oxidative damage in human CMEC/D3 cells at 1 uM incubated for 4 hrs by RTCA assay. The format is functional, cell-based.
The test system of series [4] is hCMEC/D3. Briefly: Cytoprotective activity against TNFalpha-induced cellular damage in human CMEC/D3 cells assessed as increase in cell impedance at 1 uM incubated for 4 hrs by RTCA assay. The format is functional, cell-based.
Series [5] deals with hCMEC/D3. The experiment in a line: Cytoprotective activity against IL-1beta-induced cellular damage in human CMEC/D3 cells assessed as increase in cell impedance at 1 uM incubated for 4 hrs by RTCA assay. The format is functional, cell-based.

Consider `CC(C)(O)CCC(=O)[C@](C)(O)[C@H]1CC(=O)C2=C3C(=O)C(O)=C4C[C@@H](O)[C@@H](O)C[C@]4(C)C3=CC[C@@]21C`, for which the Activity entry in series [1] and in series [2] was “Non-Toxic” in each case. Besides, the result in the series on hCMEC/D3 [3], in the series on hCMEC/D3 [4] and in the series with hCMEC/D3 [5] was Active.

As for `CC(C)(O)CC[C@@H](O)[C@](C)(O)[C@H]1C[C@H](O)C2=C3C(=O)C(O)=C4C[C@@H](O)[C@@H](O)C[C@]4(C)[C@@]3(O)CC[C@@]21C`, the Activity entry in series [1] and in series [2] was “Non-Toxic” each time. For the same compound, the outcome with hCMEC/D3 [3], in the series on hCMEC/D3 [4] and with hCMEC/D3 [5] was Active.

For the compound `CC(C)(O)CC[C@H]1O[C@H]2C(=O)[C@@H]3C4=C(CC[C@]3(C)[C@H]2[C@@]1(C)O)[C@@]1(C)C[C@H](O)[C@H](O)CC1=C(O)C4=O`, the Activity result in series [1] was “Non-Toxic”; in series [2], “Toxic”. The result with hCMEC/D3 [3], in the series on hCMEC/D3 [4] and with hCMEC/D3 [5] was Active.

Source of the values: ChEMBL document CHEMBL5257042, “Highly Oxidized Ecdysteroids from a Commercial Cyanotis arachnoidea Root Extract as Potent Blood-Brain Barrier Protective Agents” (J Nat Prod, 2023).
